The values that follow come from patent publication US11000505B2 (priority 2010, dated 2021).

Where “and” joins values, the source holds several entries; their conditions need not be identical. Equal entries are not always repeated.

The subject of one test is pial artery. The conditions noted are these: 10%-16% changes compared to the baseline.
Test [1] concerns neonatal mouse hypoxia model. The test can be described thus: Neonatal mouse hypoxia model: mortality, development, neurobehavior (Example 5). The format is in vivo, C57BL/6J mice. The text has this:
The protocol was approved by the Institutional Animal Care and Use Committee (IACUC) of the University of Pennsylvania and carried out in accordance with National Institutes of Health guidelines for the use of animals. C57BL/6J mice were purchased from The Jackson Laboratory (Bar Harbor, Me.) and inbreed pups were used for subsequent experiments. Pups were housed under a 12-hour light/dark cycle after birth with free access to food and water throughout the study. Pups from different litters were divided into 3 groups randomly. Pups in the control group (n=11) received i.p. injection of 17% dimethyl sulfoxide (DMSO) without hypoxia insult; the hypoxia group (n=46) received i.p. injection of 17% DMSO and hypoxia insult; SA group (n=26) received i.p. injection of 0.5 mg/kg SA in 17% DMSO and hypoxia insult. Pups of low weight (<1.2 g) were excluded from the study.
The hypoxic insult was induced on postnatal day 1. After i.p. injections, pups were put into a glass chamber in a water bath where the temperature was maintained at 37° C. The chamber was tightly closed and filled with 8% oxygen with balanced nitrogen. Following 120 minutes of hypoxic gas exposure, the chamber was opened and the pups were exposed to the air. Chest compressions and limb stretches were performed for up to 20 minutes to regain spontaneous breathing. The pups that successfully regained spontaneous breathing were then returned to their mothers after recovery for 30 minutes.
The neonate mouse will be considered as non-survival if no spontaneous breathing can be restored for 20 min resuscitation immediately after anoxic insult. The mortality rate will be calculated as: […]=(number of mice in a group-number of non-survival)/number of mice in a group.
From postnatal day 2 to postnatal day 21, the pups were weighed and motor behavior observation was performed every day. Pups were observed individually in a plastic testing box. Each of the following behaviors was recorded for 3 minutes: crawling, walking, running, head point and sniffing, sitting, rearing and eye opening. After the observation, placing reflex, cliff aversion, negative geotaxis, righting response and forelimb grasping testing were performed. The first appearance of the behavior or reflex continued for two consecutive days was recorded.
The open field test was performed to gauge locomotor activity on postnatal day 21 at which the mouse was considered juvenile. Mice were individually placed in a 41 cm (L)×41 cm (W)×30 cm (H) plastic box. The “central area” was defined as a 20.5 cm×20.5 cm square in the center of the box. The rest of the area was defined as the “peripheral area” (see FIG. 25A). The time each mouse spent on exploring the central and periphery parts and the number of rearing behaviors in each respective area were recorded for the first 5 minutes and 30 minutes.
At the age of 10-11 weeks, all mice were tested in several behavioral tasks in the order of: zero mazes, barnes maze and fear conditioning. These tasks were performed to examine the basal anxiety level, spontaneous locomotor activity, motor learning, spatial learning and associative memory of the mice. The mice were given 5 days for rest between each behavioral test.
“Time in open” measures mice anxiety due to their tendency to avoid open spaces. The anxiety was measured by recording the time spent in the open vs. enclosed space. Increased anxiety correlates to decreased time in the open. Open/Closed transitions measure overall activity. Increased transitions equate to greater activity.
Measures the ability to learn with visual cues. Time to Target measures the time taken to find the target hole in an arena with 19 other holes and several visual cues. The Barnes Maze is easier to set-up and probably less stressful and a valid alternative to the Water Maze to study spatial memory. […]

Consider `COC(=O)[C@@H]1C[C@H](OC(C)=O)C(=O)[C@H]2[C@@]1(C)CC[C@H]1C(=O)O[C@H](c3ccoc3)C[C@]21C` [Salvinorin A], for which, in the test on pial artery, the “concentration required to effectively dilate pial arteries” value was 10 nM. Further, the mortality rate in test [1] (0.5 mg/kg i.p. before 120 min hypoxia (8% oxygen), postnatal day 1, hypoxia group 70%) is listed as 38.5%. In addition, in test [1] (0.5 mg/kg i.p. before hypoxia), the “delayed appearance of forelimb grasping, cliff aversion, righting response and eye opening” value is on record as “prevented these delays”; the “pups survived after HI injury” value is 16 out of 26. In test [1] (P7, P14 and P21), the “body weight difference among groups” value is on record as “no significant difference was observed among groups”. For the same compound, in test [1] (P21), the “time in the central area, open field testing” value was “not statistically significant”. Further, the rearing test entry in test [1] (P21, first 5 minutes and 30 minutes) is reported as “impairment was not observed”. In test [1] (age 10-11 weeks), the “Barnes maze spatial memory” value was “no significant difference among groups”; the “elevated zero maze: time in open arm and open/closed transitions, SA vs hypoxia” value is reported as “no significant differences”; the fear conditioning entry is given as “no significant differences were observed among groups”. Further, the “first appearance of rearing without support” value in test [1] (hypoxia 19.86±0.29, control 18.18±0.44, mean±SEM, listed as SA) is 18.69 ± 0.38 days and 18.69 ± 0.3843 days. For the same compound, the “other developmental parameters (crawling, walking, running, head point and sniffing, sitting, rearing with support, negative geotaxis, placing reflex)” value in test [1] (mouse, in vivo) is “no statistical significance”. Further, the “body weight vs hypoxia group” value in test [1] (postnatal day 2 and day 3) is on record as “increased body weight”.
